Data taken from ChEMBL document CHEMBL3991601, “The target landscape of clinical kinase drugs” (Science, 2017).
Structures can show the parent of a compound that is named as a salt. Calls of active or inactive are those of the source. Cut-off read from the data, not from the text of the source, for most assays here: actives have a measured Kd and inactives only a lower limit.

What was measured:
[1] = target: T1, AarF domain-containing protein kinase 1 (Homo sapiens, UniProt Q86TW2)
T1 sequence (Q86TW2 whole entry): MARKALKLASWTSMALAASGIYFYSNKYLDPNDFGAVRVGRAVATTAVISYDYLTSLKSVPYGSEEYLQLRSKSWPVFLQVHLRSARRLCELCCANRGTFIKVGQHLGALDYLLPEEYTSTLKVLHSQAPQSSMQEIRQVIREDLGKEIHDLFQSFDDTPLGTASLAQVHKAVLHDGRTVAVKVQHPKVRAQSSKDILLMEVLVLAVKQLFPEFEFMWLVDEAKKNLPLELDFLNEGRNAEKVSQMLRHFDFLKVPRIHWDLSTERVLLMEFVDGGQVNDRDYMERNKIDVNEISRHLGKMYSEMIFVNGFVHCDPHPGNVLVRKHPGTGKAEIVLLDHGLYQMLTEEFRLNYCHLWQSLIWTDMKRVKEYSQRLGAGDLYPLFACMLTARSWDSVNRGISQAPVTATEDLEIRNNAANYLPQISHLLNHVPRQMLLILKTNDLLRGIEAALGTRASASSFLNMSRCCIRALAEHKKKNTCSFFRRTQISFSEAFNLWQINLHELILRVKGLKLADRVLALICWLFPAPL

[2] = target: Mitotic checkpoint serine/threonine-protein kinase BUB1 (Homo sapiens, UniProt O43683)
Mitotic checkpoint serine/threonine-protein kinase BUB1, sequence (O43683 whole entry): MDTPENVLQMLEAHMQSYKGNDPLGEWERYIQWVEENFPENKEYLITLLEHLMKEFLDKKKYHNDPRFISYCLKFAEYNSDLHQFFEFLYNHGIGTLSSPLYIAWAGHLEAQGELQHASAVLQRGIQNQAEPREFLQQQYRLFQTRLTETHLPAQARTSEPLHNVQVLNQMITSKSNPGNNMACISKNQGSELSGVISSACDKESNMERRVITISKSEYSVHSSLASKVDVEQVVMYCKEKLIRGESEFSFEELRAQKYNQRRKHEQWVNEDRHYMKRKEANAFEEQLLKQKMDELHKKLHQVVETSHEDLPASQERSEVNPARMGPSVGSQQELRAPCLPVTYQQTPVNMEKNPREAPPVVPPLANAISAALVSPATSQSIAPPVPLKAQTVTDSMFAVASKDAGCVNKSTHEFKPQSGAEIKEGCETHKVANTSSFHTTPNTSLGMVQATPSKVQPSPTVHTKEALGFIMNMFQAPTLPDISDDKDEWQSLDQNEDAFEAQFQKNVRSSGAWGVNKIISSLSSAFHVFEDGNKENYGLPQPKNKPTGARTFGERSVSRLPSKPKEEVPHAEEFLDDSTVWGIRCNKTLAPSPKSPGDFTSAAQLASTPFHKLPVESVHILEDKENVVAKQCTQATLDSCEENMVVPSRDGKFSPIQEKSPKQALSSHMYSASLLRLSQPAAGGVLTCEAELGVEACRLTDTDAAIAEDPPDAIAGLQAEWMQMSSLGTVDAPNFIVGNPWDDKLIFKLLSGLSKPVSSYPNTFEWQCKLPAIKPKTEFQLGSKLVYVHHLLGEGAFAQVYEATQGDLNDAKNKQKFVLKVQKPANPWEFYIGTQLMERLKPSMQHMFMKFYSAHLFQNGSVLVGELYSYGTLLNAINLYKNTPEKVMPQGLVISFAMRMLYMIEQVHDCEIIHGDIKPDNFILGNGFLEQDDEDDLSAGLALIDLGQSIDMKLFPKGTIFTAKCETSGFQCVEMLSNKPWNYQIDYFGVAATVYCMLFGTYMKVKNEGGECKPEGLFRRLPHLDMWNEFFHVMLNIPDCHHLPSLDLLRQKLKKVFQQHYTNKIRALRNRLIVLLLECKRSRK

[3] = target: T2, Serine/threonine-protein kinase 4 (Homo sapiens, UniProt Q13043)
T2 sequence (Q13043 whole entry): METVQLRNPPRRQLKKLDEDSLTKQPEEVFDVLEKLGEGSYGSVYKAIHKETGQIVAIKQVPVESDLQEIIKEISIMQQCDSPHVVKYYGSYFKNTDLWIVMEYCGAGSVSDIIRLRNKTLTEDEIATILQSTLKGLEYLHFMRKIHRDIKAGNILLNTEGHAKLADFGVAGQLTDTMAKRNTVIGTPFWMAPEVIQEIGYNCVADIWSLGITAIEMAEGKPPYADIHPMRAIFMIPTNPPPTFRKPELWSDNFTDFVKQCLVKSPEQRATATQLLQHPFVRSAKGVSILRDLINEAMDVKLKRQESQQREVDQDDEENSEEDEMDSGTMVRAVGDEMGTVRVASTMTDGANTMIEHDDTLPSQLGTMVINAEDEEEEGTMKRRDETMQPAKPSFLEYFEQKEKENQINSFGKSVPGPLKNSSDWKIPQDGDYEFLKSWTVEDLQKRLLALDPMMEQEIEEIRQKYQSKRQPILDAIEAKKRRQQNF

Focal adhesion kinase 1 = Focal adhesion kinase 1 (Homo sapiens, UniProt Q05397)
Focal adhesion kinase 1, sequence (Q05397 whole entry): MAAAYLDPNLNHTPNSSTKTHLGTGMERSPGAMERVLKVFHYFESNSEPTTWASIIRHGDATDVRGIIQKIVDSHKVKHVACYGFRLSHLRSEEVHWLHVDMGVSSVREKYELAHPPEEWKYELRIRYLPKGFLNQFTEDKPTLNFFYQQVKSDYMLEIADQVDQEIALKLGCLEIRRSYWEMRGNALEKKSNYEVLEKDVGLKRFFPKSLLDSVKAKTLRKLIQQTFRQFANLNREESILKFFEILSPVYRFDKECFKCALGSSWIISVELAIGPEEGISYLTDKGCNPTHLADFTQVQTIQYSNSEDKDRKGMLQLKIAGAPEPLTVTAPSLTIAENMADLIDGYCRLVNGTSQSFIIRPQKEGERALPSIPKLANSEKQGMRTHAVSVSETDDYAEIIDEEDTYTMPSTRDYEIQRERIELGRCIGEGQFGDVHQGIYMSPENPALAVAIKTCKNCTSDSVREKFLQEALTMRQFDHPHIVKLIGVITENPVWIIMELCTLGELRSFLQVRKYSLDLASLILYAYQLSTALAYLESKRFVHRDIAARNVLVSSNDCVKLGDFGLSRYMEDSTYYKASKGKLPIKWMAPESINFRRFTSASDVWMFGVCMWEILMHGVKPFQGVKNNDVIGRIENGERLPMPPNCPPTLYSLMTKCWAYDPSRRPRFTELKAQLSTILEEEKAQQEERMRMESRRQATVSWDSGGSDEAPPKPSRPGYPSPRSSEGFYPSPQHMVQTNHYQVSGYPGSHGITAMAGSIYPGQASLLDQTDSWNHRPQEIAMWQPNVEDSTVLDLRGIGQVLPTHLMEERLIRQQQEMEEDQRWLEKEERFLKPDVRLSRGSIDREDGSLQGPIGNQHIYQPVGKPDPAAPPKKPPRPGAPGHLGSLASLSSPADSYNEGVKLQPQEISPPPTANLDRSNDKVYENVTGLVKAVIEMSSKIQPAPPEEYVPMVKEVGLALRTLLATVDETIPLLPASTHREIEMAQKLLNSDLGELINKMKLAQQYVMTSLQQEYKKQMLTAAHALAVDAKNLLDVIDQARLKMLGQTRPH

[4] = target: Tyrosine-protein kinase FRK (Homo sapiens, UniProt P42685)
Tyrosine-protein kinase FRK, sequence (P42685 whole entry): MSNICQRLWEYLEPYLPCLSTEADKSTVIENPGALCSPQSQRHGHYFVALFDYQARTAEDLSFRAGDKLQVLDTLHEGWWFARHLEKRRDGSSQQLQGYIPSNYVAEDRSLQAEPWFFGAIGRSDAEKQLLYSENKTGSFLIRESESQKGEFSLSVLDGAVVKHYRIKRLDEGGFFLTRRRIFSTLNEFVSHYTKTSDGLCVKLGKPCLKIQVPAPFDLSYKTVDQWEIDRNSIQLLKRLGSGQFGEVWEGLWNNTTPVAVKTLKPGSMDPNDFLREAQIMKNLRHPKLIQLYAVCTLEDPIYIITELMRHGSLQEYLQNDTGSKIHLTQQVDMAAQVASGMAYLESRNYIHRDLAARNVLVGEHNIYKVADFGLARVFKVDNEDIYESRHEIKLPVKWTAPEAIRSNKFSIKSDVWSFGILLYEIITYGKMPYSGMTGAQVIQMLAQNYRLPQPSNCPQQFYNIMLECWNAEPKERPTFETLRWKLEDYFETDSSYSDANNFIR

[5] = target: T3, Bone morphogenetic protein receptor type-2 (Homo sapiens, UniProt Q13873)
T3 sequence (Q13873 whole entry): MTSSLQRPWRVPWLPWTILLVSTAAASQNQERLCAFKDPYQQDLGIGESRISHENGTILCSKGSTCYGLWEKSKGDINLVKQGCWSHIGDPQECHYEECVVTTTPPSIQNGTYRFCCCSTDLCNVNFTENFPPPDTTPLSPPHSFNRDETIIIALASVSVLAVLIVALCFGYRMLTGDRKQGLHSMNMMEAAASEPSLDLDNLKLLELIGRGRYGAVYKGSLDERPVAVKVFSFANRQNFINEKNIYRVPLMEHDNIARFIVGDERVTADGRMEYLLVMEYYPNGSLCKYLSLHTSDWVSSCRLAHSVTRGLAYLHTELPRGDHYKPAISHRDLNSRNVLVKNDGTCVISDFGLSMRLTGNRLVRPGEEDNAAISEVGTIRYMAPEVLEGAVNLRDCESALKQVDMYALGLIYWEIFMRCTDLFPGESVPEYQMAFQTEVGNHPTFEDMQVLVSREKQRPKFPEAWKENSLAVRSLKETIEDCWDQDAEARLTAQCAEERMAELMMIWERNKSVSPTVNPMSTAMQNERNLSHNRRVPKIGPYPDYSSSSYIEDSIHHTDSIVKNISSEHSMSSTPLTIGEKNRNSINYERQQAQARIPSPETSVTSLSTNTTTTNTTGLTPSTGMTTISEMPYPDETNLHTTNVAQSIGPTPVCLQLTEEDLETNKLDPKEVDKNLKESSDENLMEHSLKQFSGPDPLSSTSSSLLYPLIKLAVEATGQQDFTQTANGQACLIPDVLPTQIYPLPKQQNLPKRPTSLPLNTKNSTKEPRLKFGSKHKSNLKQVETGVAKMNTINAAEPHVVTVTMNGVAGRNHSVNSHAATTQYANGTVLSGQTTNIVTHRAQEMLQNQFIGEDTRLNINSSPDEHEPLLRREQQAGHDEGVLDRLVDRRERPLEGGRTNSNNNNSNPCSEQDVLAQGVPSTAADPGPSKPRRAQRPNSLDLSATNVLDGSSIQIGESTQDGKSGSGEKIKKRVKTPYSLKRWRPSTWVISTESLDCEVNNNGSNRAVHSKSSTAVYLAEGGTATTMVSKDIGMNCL

[6] = target: Membrane-associated progesterone receptor component 1 (Homo sapiens, UniProt O00264)
Membrane-associated progesterone receptor component 1, sequence (O00264 whole entry): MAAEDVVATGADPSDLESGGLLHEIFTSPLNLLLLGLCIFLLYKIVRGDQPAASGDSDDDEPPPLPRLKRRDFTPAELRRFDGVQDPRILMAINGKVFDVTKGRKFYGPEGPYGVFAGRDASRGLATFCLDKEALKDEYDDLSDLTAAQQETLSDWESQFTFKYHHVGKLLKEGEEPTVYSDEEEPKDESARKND

[7] = target: T4, Interleukin-1 receptor-associated kinase 4 (Homo sapiens, UniProt Q9NWZ3)
T4 sequence (Q9NWZ3 whole entry): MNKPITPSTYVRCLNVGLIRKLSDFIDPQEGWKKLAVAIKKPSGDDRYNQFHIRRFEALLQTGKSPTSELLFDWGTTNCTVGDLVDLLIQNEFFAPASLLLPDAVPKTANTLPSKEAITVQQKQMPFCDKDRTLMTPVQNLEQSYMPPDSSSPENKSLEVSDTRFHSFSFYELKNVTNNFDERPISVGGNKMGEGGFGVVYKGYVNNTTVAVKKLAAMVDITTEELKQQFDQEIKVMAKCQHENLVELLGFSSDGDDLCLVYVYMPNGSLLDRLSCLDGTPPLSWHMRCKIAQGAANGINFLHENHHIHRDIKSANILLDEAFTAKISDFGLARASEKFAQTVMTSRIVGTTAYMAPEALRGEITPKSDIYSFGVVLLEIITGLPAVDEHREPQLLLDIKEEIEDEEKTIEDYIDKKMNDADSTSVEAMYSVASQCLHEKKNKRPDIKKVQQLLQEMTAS

[8] = target: Receptor-interacting serine/threonine-protein kinase 3 (Homo sapiens, UniProt Q9Y572)
Receptor-interacting serine/threonine-protein kinase 3, sequence (Q9Y572 whole entry): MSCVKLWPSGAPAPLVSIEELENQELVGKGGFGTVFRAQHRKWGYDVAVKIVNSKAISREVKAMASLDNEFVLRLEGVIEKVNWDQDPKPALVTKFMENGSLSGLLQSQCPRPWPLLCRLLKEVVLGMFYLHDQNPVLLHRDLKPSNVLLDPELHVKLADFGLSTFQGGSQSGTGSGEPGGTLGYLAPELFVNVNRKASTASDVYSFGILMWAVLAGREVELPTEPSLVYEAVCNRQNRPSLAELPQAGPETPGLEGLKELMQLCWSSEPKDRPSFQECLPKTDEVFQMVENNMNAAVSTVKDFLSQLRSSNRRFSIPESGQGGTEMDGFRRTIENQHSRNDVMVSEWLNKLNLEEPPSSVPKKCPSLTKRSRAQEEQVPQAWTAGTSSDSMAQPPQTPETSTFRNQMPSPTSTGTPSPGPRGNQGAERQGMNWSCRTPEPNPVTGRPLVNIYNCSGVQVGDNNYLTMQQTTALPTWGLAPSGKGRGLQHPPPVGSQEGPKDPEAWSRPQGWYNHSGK
Note: in the data inactive means no Kd found up to 30 µM.

SMILES | Kd [1] | Kd [2] | Kd [3] | Kd (Focal adhesion kinase 1) | Kd [4] | Kd [5] | Kd [6] | Kd [7] | Kd [8]
CCS(=O)(=O)N1CCN(c2ccc(Nc3ncc(C(N)=O)c(NC4CC4)n3)cc2)CC1 [Cerdulatinib Hydrochloride] | > 30 µM (inactive) | 0.437 µM (active) | 0.102 µM (active) | > 30 µM (inactive) | > 30 µM (inactive) | 4.86 µM (active) | > 30 µM (inactive) | > 30 µM (inactive) | > 30 µM (inactive)
CC(C)(C)c1nc(-c2cccc(NS(=O)(=O)c3c(F)cccc3F)c2F)c(-c2ccnc(N)n2)s1 [DABRAFENIB] | > 30 µM (inactive) | > 30 µM (inactive) | > 30 µM (inactive) | > 30 µM (inactive) | 0.727 µM (active) | > 30 µM (inactive) | > 30 µM (inactive) | > 30 µM (inactive) | 0.283 µM (active)
Cc1nc2cc(-n3ncc(C(=O)c4cc5ccccc5[nH]4)c3N)ccc2[nH]1 [FGFR INHIBITOR DEBIO 1347] | > 30 µM (inactive) | > 30 µM (inactive) | > 30 µM (inactive) | > 30 µM (inactive) | > 30 µM (inactive) | > 30 µM (inactive) | > 30 µM (inactive) | > 30 µM (inactive) | > 30 µM (inactive)
O=C(Nc1nc2cccc(-c3ccc(CN4CCS(=O)(=O)CC4)cc3)n2n1)C1CC1 [FILGOTINIB] | 2.03 µM (active) | > 30 µM (inactive) | > 30 µM (inactive) | > 30 µM (inactive) | > 30 µM (inactive) | > 30 µM (inactive) | > 30 µM (inactive) | > 30 µM (inactive) | > 30 µM (inactive)
Cc1cccc(-c2nn3c(c2-c2ccnc4ccc(C(N)=O)cc24)CCC3)n1 [GALUNISERTIB] | > 30 µM (inactive) | > 30 µM (inactive) | > 30 µM (inactive) | > 30 µM (inactive) | > 30 µM (inactive) | > 30 µM (inactive) | > 30 µM (inactive) | > 30 µM (inactive) | 0.011 µM (active)
CNC(=O)c1cccc2cc(Oc3ccnc4cc(OCC5(N)CC5)c(OC)cc34)ccc12 [LUCITANIB] | > 30 µM (inactive) | > 30 µM (inactive) | > 30 µM (inactive) | > 30 µM (inactive) | > 30 µM (inactive) | > 30 µM (inactive) | > 30 µM (inactive) | > 30 µM (inactive) | > 30 µM (inactive)
FC(F)(F)c1ccc(/C=C/c2nc(COc3ccc(CCCCn4ccnn4)cc3)co2)cc1 [MUBRITINIB] | > 30 µM (inactive) | > 30 µM (inactive) | > 30 µM (inactive) | > 30 µM (inactive) | > 30 µM (inactive) | > 30 µM (inactive) | > 30 µM (inactive) | > 30 µM (inactive) | > 30 µM (inactive)
Cc1cnc(NC(=O)Nc2cc(Br)c(C)cc2OC[C@@H]2CNCCO2)cn1 [RABUSERTIB] | > 30 µM (inactive) | > 30 µM (inactive) | > 30 µM (inactive) | > 30 µM (inactive) | > 30 µM (inactive) | > 30 µM (inactive) | > 30 µM (inactive) | > 30 µM (inactive) | > 30 µM (inactive)
CO[C@H]1C[C@@H]2CC[C@@H](C)[C@@](O)(O2)C(=O)C(=O)N2CCCC[C@H]2C(=O)O[C@H]([C@H](C)C[C@@H]2CC[C@@H](OP(C)(C)=O)[C@H](OC)C2)CC(=O)[C@H](C)/C=C(\C)[C@@H](O)[C@@H](OC)C(=O)[C@H](C)C[C@H](C)/C=C/C=C/C=C/1C [RIDAFOROLIMUS] | > 30 µM (inactive) | > 30 µM (inactive) | > 30 µM (inactive) | > 30 µM (inactive) | > 30 µM (inactive) | > 30 µM (inactive) | > 30 µM (inactive) | > 30 µM (inactive) | > 30 µM (inactive)
O=c1[nH]ccc2cc(OC3CCNCC3)ccc12 [SAR-407899 FREE BASE] | > 30 µM (inactive) | > 30 µM (inactive) | > 30 µM (inactive) | > 30 µM (inactive) | > 30 µM (inactive) | > 30 µM (inactive) | > 30 µM (inactive) | > 30 µM (inactive) | > 30 µM (inactive)

Further lines, results first:

Kd [1] | Kd [2] | Kd [3] | Kd (Focal adhesion kinase 1) | Kd [4] | Kd [5] | Kd [6] | Kd [7] | Kd [8] | SMILES
> 30 µM (inactive) | > 30 µM (inactive) | > 30 µM (inactive) | > 30 µM (inactive) | > 30 µM (inactive) | > 30 µM (inactive) | > 30 µM (inactive) | > 30 µM (inactive) | > 30 µM (inactive) | NC1(c2ccc(-c3nc4ccn5c(=O)[nH]nc5c4cc3-c3ccccc3)cc2)CCC1 [MK-2206]
> 30 µM (inactive) | > 30 µM (inactive) | > 30 µM (inactive) | > 30 µM (inactive) | > 30 µM (inactive) | > 30 µM (inactive) | > 30 µM (inactive) | 1.47 µM (active) | > 30 µM (inactive) | CN(C[C@@H]1COCCO1)S(=O)(=O)Nc1ccc2ccc3ncc(-c4cnn(C)c4)cc3c(=O)c2c1 [MK-2461]
> 30 µM (inactive) | > 30 µM (inactive) | > 30 µM (inactive) | > 30 µM (inactive) | > 30 µM (inactive) | > 30 µM (inactive) | > 30 µM (inactive) | > 30 µM (inactive) | > 30 µM (inactive) | Cn1cc(-c2cnc3ccc4ccc(CS(=O)(=O)NCc5ccccn5)cc4c(=O)c3c2)cn1 [MK-8033]
> 30 µM (inactive) | > 30 µM (inactive) | 4.32 µM (active) | > 30 µM (inactive) | > 30 µM (inactive) | > 30 µM (inactive) | > 30 µM (inactive) | > 30 µM (inactive) | > 30 µM (inactive) | Cc1nc(Nc2n[nH]c3c2CN(C(=O)N[C@H](CN(C)C)c2ccccc2)C3(C)C)c2sccc2n1 [PF-03758309]
> 30 µM (inactive) | > 30 µM (inactive) | > 30 µM (inactive) | > 30 µM (inactive) | > 30 µM (inactive) | > 30 µM (inactive) | > 30 µM (inactive) | 4.01 µM | > 30 µM (inactive) | Cn1cc(-c2cnn3c(N)c(Br)c([C@@H]4CCCNC4)nc23)cn1 [SCH-900776]
